According to patent US4243668A, “Octahydro-1H-benzo[4,5]furo[3,2-e]-isoquinoline analgesic and narcotic antagonistic compounds” (priority 1979, dated 1981):
Read-outs that look alike come from different tables or passages of the source.

Assays:
[1] = system: pain induced by phenylquinone; assay: phenylquinone writhing test (oral anti-PQW), analgesic activity; assay type: in vivo, female white mice; settings: for ED50: Mus musculus, po, mice, oral, phenylquinone writhing, read-out: EFFECT ED50 Oral Anti-PQW
Method: A standard procedure for detecting and comparing the analgesic activity of compounds in this series for which there is good correlation with human efficacy is the standard phenylquinone writhing test modified from Siegmund, et al., Proc. Soc. Exp. Biol. Med., 95, 729 (1957). A test compound suspended in 1% methocel® was given orally to fasted (17-21 hours) female white mice, 5-20 animals per double blind test. Aqueous (0.01% phenyl-p-benzoquinone) phenylquinone was injected intraperitoneally at 24 minutes later using 0.20 ml per mouse. […] The effective analgesic dose for 50% of the mice (ED50) was calculated by the moving average method of Thompson, W. R., Bact. Rev., 11, 115-145 (1947).

Straub tail = Straub tail reaction (oral), narcotic agonist effect; assay type: in vivo, CF1 S female mice; settings: Mus musculus, mice
Method: Narcotic analgesics produce in mice an erection and arching of the tail (90° or more) which is referable to spinal cord stimulation. This Straub tail reaction is not produced by other analgesics, including the narcotic antagonists.
The method used was modified from Shemano, I., and Wendel, H., Tox. Appl. Pharm., 6, 334-9 (1964). CF1 S female mice (18-21 g), 10-20 mice per dose, were intubated with log scaled doses of analgesic in 1% aqueous methylcellulose. A positive Straub tail response was recorded if a tail was erected 90° or more for 5 seconds at any time within 24 minutes after dosing. A quantal Straub tail ED50 was calculated by the moving average method [Thompson, W. R., Bact. Rev., 11, 115-145 (1947)].

[2] = system: induction of Straub tail in mice by a highly addicting agonist such as morphine; assay: anti-Straub tail test, antagonism of morphine-induced Straub tail (narcotic antagonism); assay type: in vivo, Female CF1 S mice; settings: for ED50: Mus musculus; for ED50 / EFFECT ED50 subcutaneous(s.c.) Anti-Straub Tail: mice, vs morphine sulfate 30 mg/kg i.p.
[3] = ip, i.p., read-out: EFFECT ED50 Intraperitoneal(i.p.) Anti-Straub Tail
[4] = sc, s.c., read-out: EFFECT ED50 subcutaneous(s.c.) Anti-Straub Tail

Row | Structure (SMILES) | ED50 [1] [mg/kg] | ED50 (Straub tail) [mg/kg] | ED50 [2, 4] [mg/kg] | further results
1 | CN1CC[C@]23c4ccccc4O[C@H]2CCC[C@H]3C1 (relative stereo) [Example 1, 3-Methyl-2,3,4,4aα,5,6,7,7aα,octahydro-1H-benzo[4,5]furo[3,2-e]isoquinoline] | 14 | > 81 |  | 
2 | COc1cccc2c1O[C@H]1CCC[C@H]3CN(C)CC[C@@]231 (relative stereo) [Example 2, 9-Methoxy-3-methyl-2,3,4,4aα-5,6,7,7aα-octahydro-1H-benzo[4,5]furo[3,2-e]isoquinoline] | 9.8 | > 135 |  | ED50 [2, 3]: 10.1 mg/kg
3 | CN1CC[C@]23c4cccc(O)c4O[C@H]2CCC[C@H]3C1 (relative stereo) [Example 3, 3-Methyl-2,3,4,4aα,5,6,7,7aα-octahydro-1H-benzo[4,5]furo[3,2-e]isoquinolin-9-ol] | 3.5 | > 135 | 0.27 | 
4 | COc1cccc2c1O[C@H]1CCC[C@H]3CN(CC4CC4)CC[C@@]231 (relative stereo) [Example 4, 3-Cyclopropylmethyl-9-methoxy-2,3,4,4aα,5,6,7,7aα-octahydro-1H-benzo[4,5]furo[3,2-e]isoquinoline] | 19.7 | > 135 |  | ED50 [2, 3]: 0.31 mg/kg
5 | Oc1cccc2c1O[C@H]1CCC[C@H]3CN(CC4CC4)CC[C@@]231 (relative stereo) [Example 5, 3-Cyclopropylmethyl-2,3,4,4aα,5,6,7,7aα-octahydro-1H-benzo[4,5]furo[3,2-e]isoquinolin-9-ol] | 0.75 | > 81 | 0.006 | analgesic potency compared with morphine ([1]; mouse analgesia data, relative to morphine): several times greater potency than morphine
6 | Oc1cccc2c1O[C@H]1CCC[C@H]3CN(CC4CCC4)CC[C@@]231 (relative stereo) [Example 7, 3-Cyclobutylmethyl-2,3,4,4aα,5,6,7,7aα-octahydro-1H-benzo[4,5]furo[3,2-e]isoquinoline-9-ol] | 81 | > 81 |  | ED50 [2, 3]: 0.64 mg/kg
7 | CC(=O)Oc1cccc2c1O[C@H]1CCC[C@H]3CN(CC4CC4)CC[C@@]231 (relative stereo) [Example 9, 3-Cyclopropylmethyl-9-acetoxy-2,3,4,4aα,5,6,7,7aα-octahydro-1H-benzo[4,5]furo[3,2-e]isoquinoline] | 0.75 | > 135 | 0.005 | 
8 | COc1cccc2c1O[C@H]1CCC[C@H]3CN(Cc4ccccc4)CC[C@@]231 (relative stereo) [Example 10, 3-Benzyl-9-methoxy-2,3,4,4aα,5,6,7,7aα-octahydro-1H-benzo[4,5]furo[3,2-e]isoquinoline] | 48 | > 81 | 48 | narcotic antagonism, in words ([2]; mouse anti-Straub tail test): pure narcotic antagonists
9 | Oc1cccc2c1O[C@H]1CCC[C@H]3CN(Cc4ccccc4)CC[C@@]231 (relative stereo) [Example 11, 3-Benzyl-2,3,4,4aα,5,6,7,7aα-octahydro-1H-benzo[4,5]furo[3,2-e]isoquinoline-9-ol] | 29 | > 81 | 1.2 | 
10 | COc1cccc2c1O[C@H]1CCC[C@H]3CNCC[C@@]231 (relative stereo) [Example 12, 9-Methoxy-2,3,4,4aα,5,6,7,7aα-octahydro-1H-benzo[4,5]furo[3,2-e]isoquinoline] | 47 | > 81 |  | 
11 | Oc1cccc2c1O[C@H]1CCC[C@H]3CNCC[C@@]231 (relative stereo) [Example 13, 2,3,4,4aα,5,6,7,7aα-octahydro-1H-benzo[4,5]furo[3,2-e]isoquinol in-9-ol] | 15 | > 135 | > 27 | 
12 | CCN1CC[C@]23c4cccc(OC)c4O[C@H]2CCC[C@H]3C1 (relative stereo) [Example 14a, 3-ethyl-9-methoxy-2,3,4,4aα,5,6,7,7aα-octahydro-1H-benzo[4,5]furo[3,2-e] isoquinoline] | 63 | > 135 | 0.71 | 
13 | CCN1CC[C@]23c4cccc(O)c4O[C@H]2CCC[C@H]3C1 (relative stereo) [Example 14b, 3-Ethyl-2,3,4,4aα,5,6,7,7aα-octahydro-1H-benzo[4,5]furo[3,2-e]isoquinolin-9-ol] | 135 | > 135 | 0.028 | 
14 | C=CCN1CC[C@]23c4cccc(OC)c4O[C@H]2CCC[C@H]3C1 (relative stereo) [Example 15, 3-Allyl-9-methoxy-2,3,4,4aα,5,6,7,7aα-octahydro-1H-benzo[4,5]furo[3,2-e]isoquinoline] | 62 | > 135 | 0.3 | 
15 | C=CCN1CC[C@]23c4cccc(O)c4O[C@H]2CCC[C@H]3C1 (relative stereo) [Example 16, 3-Allyl-2,3,4,4aα,5,6,7,7aα-octahydro-1H-benzo[4,5]furo[3,2-e]isoquinolin-9-ol] | 81 | > 81 | 0.03 | 
16 | COc1cccc2c1O[C@H]1CCC[C@H]3CN(CC=C(C)C)CC[C@@]231 (relative stereo) [Example 17, 3-(3'-Methyl-2'-butenyl)-9-methoxy-2,3,4,4aα,5,6,7,7aα-octahydro-1H-benzo[4,5]furo[3,2-e]isoquinoline] | 18.7 | > 135 | 7.8 | 
17 | CC(C)=CCN1CC[C@]23c4cccc(O)c4O[C@H]2CCC[C@H]3C1 (relative stereo) [Example 18, 3-(3'-methyl-2'-butenyl)-2,3,4,4aα,5,6,7,7aα-octahydro-1H-benzo[4,5]furo[3,2-e]isoquinolin-9-ol] | 10.8 | 32 | > 27 | 

Row | Structure (SMILES) | ED50 [1] [mg/kg] | ED50 (Straub tail) [mg/kg] | ED50 [2, 4] [mg/kg] | further results
18 | CC(C)CCN1CC[C@]23c4cccc(O)c4O[C@H]2CCC[C@H]3C1 (relative stereo) [Example 19, 3-(3'-Methylbutyl)-2,3,4,4aα,5,6,7,7aα-octahydro-1H-benzo[4,5]furo[3,2-e]isoquinolin-9-ol] | 33 | > 135 | 0.64 | 
19 | COc1cccc2c1O[C@H]1CCC[C@H]3CN(CC#N)CC[C@@]231 (relative stereo) [Example 20, 9-Methoxy-2,3,4,4aα,5,6,7,7aα-octahydro-1H-benzo[4,5]furo[3,2-e]isoquinoline-3-acetonitrile] | 26 | > 135 | > 27 | 
20 | CCCN1CC[C@]23c4cccc(OC)c4O[C@H]2CCC[C@H]3C1 (relative stereo) [Example 21] | 78 | > 135 | 0.08 | 
21 | CCCN1CC[C@]23c4cccc(O)c4O[C@H]2CCC[C@H]3C1 (relative stereo) [Example 22] | 112 | > 135 | 0.008 | 
22 | CCCCN1CC[C@]23c4cccc(OC)c4O[C@H]2CCC[C@H]3C1 (relative stereo) [Example 23] | 33 | > 135 | 0.82 | 
23 | CN1CCC23c4cccc(O)c4OC2CCCC3C1 (single isomer, unassigned; isomer 3) [Example 3 (+)isomer, 3-Methyl-2,3,4,4aα,5,6,7,7aα-octahydro-1H-benzo[4,5]furo[3,2-e]isoquinolin-9-ol] |  |  |  | EFFECT ED50 subcutaneous(s.c.) Anti-Straub Tail ([2]; s.c., listed as 3 (+)isomer): 3.3
24 | CN1CCC23c4cccc(O)c4OC2CCCC3C1 (single isomer, unassigned; isomer 3) [Example 3 (-)isomer, 3-Methyl-2,3,4,4aα,5,6,7,7aα-octahydro-1H-benzo[4,5]furo[3,2-e]isoquinolin-9-ol] |  | > 135 |  | EFFECT ED50 subcutaneous(s.c.) Anti-Straub Tail ([2]; s.c., listed as 3 (-)isomer): 0.14
25 | CCCCN1CCC23c4cccc(O)c4OC2CCCC3C1 (centres unmarked) [Example 24] | 23 | > 135 | 0.032 | 
26 | CCCCCN1CCC23c4cccc(OC)c4OC2CCCC3C1 (centres unmarked) [Example 25] | 6.2 | 57 | > 27 | 
27 | CCCCCN1CCC23c4cccc(O)c4OC2CCCC3C1 (centres unmarked) [Example 26] | 5.3 | 37 | > 27 | 
28 | CCCCCCN1CCC23c4cccc(O)c4OC2CCCC3C1 (centres unmarked) [Example 28] | 2.9 | 26 |  | 
29 | CCCCCCCCN1CCC23c4cccc(OC)c4OC2CCCC3C1 (centres unmarked) [Example 29] | 7.2 |  | > 27 | 
30 | CCCCCCCCN1CCC23c4cccc(O)c4OC2CCCC3C1 (centres unmarked) [Example 30] | 4.2 | 54 |  | 
31 | COc1cccc2c1OC1CCCC3CN(CC4CCCCC4)CCC231 (centres unmarked) [Example 33] | 135 | > 135 |  | 
32 | COc1cccc2c1OC1CCCC3CN(CC4CCCO4)CCC231 (centres unmarked) [Example 39] | 16.7 |  | 4.7 | 
33 | Oc1cccc2c1OC1CCCC3CN(CC4CCCO4)CCC231 (centres unmarked) [Example 40] | 11.8 |  | 0.19 | 
34 | Oc1cccc2c1OC1CCCC3CN(Cc4cccs4)CCC231 (centres unmarked) [Example 42] | 108 | > 135 |  | 
